Test results published in patent publication US20240000872A1, “NOVEL BACTERIOPHAGE THAT LYSES ACINETOBACTER GENUS BACTERIA HAVING RESISTANCE TO ANTIBIOTICS” (priority 2020, published 2024).

Tested on: Acinetobacter baumannii strains
Assay: Antibiotic susceptibility test (CLSI disk diffusion test method, read per CLSI 2016); as to antibiotic susceptibility S/I/R: key: ‘S’ means susceptible; ‘I’ means intermediate; ‘R’ means resistant; as to susceptibility category (S/I/R): key: ‘S’ means susceptible; ‘I’ means intermediate; ‘R’ means resistant
Format: cell-based
Parameters: antibiotic susceptibility test value / susceptibility test value (number given before S/I/R) / antibiotic susceptibility value: unit not given here

Substance: colistin
- antibiotic susceptibility value (host strain YMC16/01/R353): 0.5
- susceptibility category (S/I/R) (host strain YMC16/01/R353): S
- susceptibility test value (number given before S/I/R) (host strain YMC16/01/R353): 0.5
- antibiotic susceptibility S/I/R (host strain YMC16/01/R380): S
- antibiotic susceptibility value (host strain YMC16/01/R380): 0.5
- susceptibility category (S/I/R) (host strain YMC16/01/R380): S
- susceptibility test value (number given before S/I/R) (host strain YMC16/01/R380): 0.5
- antibiotic susceptibility S/I/R (host strain YMC16/01/R397): S
- antibiotic susceptibility value (host strain YMC16/01/R397): 0.5
- susceptibility category (S/I/R) (host strain YMC16/01/R397): S
- susceptibility test value (number given before S/I/R) (host strain YMC16/01/R397): 0.5
- antibiotic susceptibility S/I/R (host strain YMC16/01/R405): S
- antibiotic susceptibility value (host strain YMC16/01/R405): 0.5
- susceptibility category (S/I/R) (host strain YMC16/01/R405): S
- susceptibility test value (number given before S/I/R) (host strain YMC16/01/R405): 0.5
- antibiotic susceptibility S/I/R (host strain YMC16/03/R4461): R
- antibiotic susceptibility value (host strain YMC16/03/R4461): 16
- susceptibility category (S/I/R) (host strain YMC16/03/R4461): R
- susceptibility test value (number given before S/I/R) (host strain YMC16/03/R4461): 16
- antibiotic susceptibility S/I/R (host strain YMC16/05/R2210): R
- antibiotic susceptibility value (host strain YMC16/05/R2210): 16
- susceptibility category (S/I/R) (host strain YMC16/05/R2210): R
- susceptibility test value (number given before S/I/R) (host strain YMC16/05/R2210): 16
- antibiotic susceptibility S/I/R (host strain YMC16/07/R2512): R
- antibiotic susceptibility value (host strain YMC16/07/R2512): 16
- susceptibility category (S/I/R) (host strain YMC16/07/R2512): R
- susceptibility test value (number given before S/I/R) (host strain YMC16/07/R2512): 16
- antibiotic susceptibility S/I/R (host strain YMC16/09/R2471): R
- antibiotic susceptibility value (host strain YMC16/09/R2471): 16
- susceptibility category (S/I/R) (host strain YMC16/09/R2471): R
- susceptibility test value (number given before S/I/R) (host strain YMC16/09/R2471): 16
- antibiotic susceptibility S/I/R (host strain YMC16/10/R2537): R
- antibiotic susceptibility value (host strain YMC16/10/R2537): 16
- susceptibility category (S/I/R) (host strain YMC16/10/R2537): R
- susceptibility test value (number given before S/I/R) (host strain YMC16/10/R2537): 16
- antibiotic susceptibility S/I/R (host strain YMC16/12/B11422): S
- antibiotic susceptibility value (host strain YMC16/12/B11422): 0.5
- susceptibility category (S/I/R) (host strain YMC16/12/B11422): S
- susceptibility test value (number given before S/I/R) (host strain YMC16/12/B11422): 0.5
- antibiotic susceptibility S/I/R (host strain YMC16/12/B11449): S
- antibiotic susceptibility value (host strain YMC16/12/B11449): 0.5
- susceptibility category (S/I/R) (host strain YMC16/12/B11449): S
- susceptibility test value (number given before S/I/R) (host strain YMC16/12/B11449): 0.5
- antibiotic susceptibility S/I/R (host strain YMC16/12/B13325): S
- antibiotic susceptibility value (host strain YMC16/12/B13325): 0.5
- susceptibility category (S/I/R) (host strain YMC16/12/B13325): S
- susceptibility test value (number given before S/I/R) (host strain YMC16/12/B13325): 0.5
- antibiotic susceptibility S/I/R (host strain YMC16/12/P503): R
- antibiotic susceptibility value (host strain YMC16/12/P503): 16
- susceptibility category (S/I/R) (host strain YMC16/12/P503): R
- susceptibility test value (number given before S/I/R) (host strain YMC16/12/P503): 16
- antibiotic susceptibility S/I/R (host strain YMC16/12/R4637): R
- antibiotic susceptibility value (host strain YMC16/12/R4637): 16
- susceptibility category (S/I/R) (host strain YMC16/12/R4637): R
- susceptibility test value (number given before S/I/R) (host strain YMC16/12/R4637): 16
- antibiotic susceptibility S/I/R (host strain YMC17/01/B8053): S
- antibiotic susceptibility value (host strain YMC17/01/B8053): 0.5
- susceptibility category (S/I/R) (host strain YMC17/01/B8053): S
- susceptibility test value (number given before S/I/R) (host strain YMC17/01/B8053): 0.5
- antibiotic susceptibility S/I/R (host strain YMC17/01/B10087): S
- antibiotic susceptibility value (host strain YMC17/01/B10087): 0.5
- susceptibility category (S/I/R) (host strain YMC17/01/B10087): S
- susceptibility test value (number given before S/I/R) (host strain YMC17/01/B10087): 0.5
- antibiotic susceptibility S/I/R (host strain YMC17/01/B12075): S
- antibiotic susceptibility value (host strain YMC17/01/B12075): 22
- susceptibility category (S/I/R) (host strain YMC17/01/B12075): S
- susceptibility test value (number given before S/I/R) (host strain YMC17/01/B12075): 22
- antibiotic susceptibility S/I/R (host strain YMC17/01/B13454): S
- antibiotic susceptibility value (host strain YMC17/01/B13454): 0.5
- susceptibility category (S/I/R) (host strain YMC17/01/B13454): S
- susceptibility test value (number given before S/I/R) (host strain YMC17/01/B13454): 0.5
- antibiotic susceptibility S/I/R (host strain YMC17/01/P518): S
- antibiotic susceptibility value (host strain YMC17/01/P518): 0.5
- susceptibility category (S/I/R) (host strain YMC17/01/P518): S
- susceptibility test value (number given before S/I/R) (host strain YMC17/01/P518): 0.5
- antibiotic susceptibility S/I/R (host strain YMC17/01/R2812): R
- antibiotic susceptibility value (host strain YMC17/01/R2812): 16
- susceptibility category (S/I/R) (host strain YMC17/01/R2812): R
- susceptibility test value (number given before S/I/R) (host strain YMC17/01/R2812): 16
- antibiotic susceptibility S/I/R (host strain YMC17/02/B14): S
- antibiotic susceptibility value (host strain YMC17/02/B14): 0.5
- susceptibility category (S/I/R) (host strain YMC17/02/B14): S
- susceptibility test value (number given before S/I/R) (host strain YMC17/02/B14): 0.5
- antibiotic susceptibility S/I/R (host strain YMC17/02/B87): S
- antibiotic susceptibility value (host strain YMC17/02/B87): 0.5
- susceptibility category (S/I/R) (host strain YMC17/02/B87): S
- susceptibility test value (number given before S/I/R) (host strain YMC17/02/B87): 0.5
- antibiotic susceptibility S/I/R (host strain YMC17/02/B721): S
- antibiotic susceptibility value (host strain YMC17/02/B721): 0.5
- susceptibility category (S/I/R) (host strain YMC17/02/B721): S
- susceptibility test value (number given before S/I/R) (host strain YMC17/02/B721): 0.5
- antibiotic susceptibility S/I/R (host strain YMC17/02/B4039): S
- antibiotic susceptibility value (host strain YMC17/02/B4039): 0.5
- susceptibility category (S/I/R) (host strain YMC17/02/B4039): S
- susceptibility test value (number given before S/I/R) (host strain YMC17/02/B4039): 0.5
- antibiotic susceptibility S/I/R (host strain YMC17/02/B4520): S
- antibiotic susceptibility value (host strain YMC17/02/B4520): 0.5
- susceptibility category (S/I/R) (host strain YMC17/02/B4520): S
- susceptibility test value (number given before S/I/R) (host strain YMC17/02/B4520): 0.5
- antibiotic susceptibility S/I/R (host strain YMC17/02/B4864): S
- antibiotic susceptibility value (host strain YMC17/02/B4864): 0.5
- susceptibility category (S/I/R) (host strain YMC17/02/B4864): S
- susceptibility test value (number given before S/I/R) (host strain YMC17/02/B4864): 0.5
- antibiotic susceptibility S/I/R (host strain YMC17/02/B8414): S
- antibiotic susceptibility value (host strain YMC17/02/B8414): 0.5
- susceptibility category (S/I/R) (host strain YMC17/02/B8414): S
- susceptibility test value (number given before S/I/R) (host strain YMC17/02/B8414): 0.5
- antibiotic susceptibility S/I/R (host strain YMC17/02/P523): S
- antibiotic susceptibility value (host strain YMC17/02/P523): 0.5
- susceptibility category (S/I/R) (host strain YMC17/02/P523): S
- susceptibility test value (number given before S/I/R) (host strain YMC17/02/P523): 0.5
- antibiotic susceptibility S/I/R (host strain YMC17/02/R541): R
- antibiotic susceptibility value (host strain YMC17/02/R541): 16
- susceptibility category (S/I/R) (host strain YMC17/02/R541): R
- susceptibility test value (number given before S/I/R) (host strain YMC17/02/R541): 16
- antibiotic susceptibility S/I/R (host strain YMC17/02/R2392): R
- antibiotic susceptibility value (host strain YMC17/02/R2392): 16
- susceptibility category (S/I/R) (host strain YMC17/02/R2392): R
- susceptibility test value (number given before S/I/R) (host strain YMC17/02/R2392): 4
- antibiotic susceptibility S/I/R (host strain YMC17/03/B4730): S
- antibiotic susceptibility value (host strain YMC17/03/B4730): 0.5
- susceptibility category (S/I/R) (host strain YMC17/03/B4730): S
- susceptibility test value (number given before S/I/R) (host strain YMC17/03/B4730): 0.5
- antibiotic susceptibility S/I/R (host strain YMC17/03/B5000): S
- antibiotic susceptibility value (host strain YMC17/03/B5000): 0.5
- susceptibility category (S/I/R) (host strain YMC17/03/B5000): S
- susceptibility test value (number given before S/I/R) (host strain YMC17/03/B5000): 0.5
- antibiotic susceptibility S/I/R (host strain YMC17/03/P971): R
- antibiotic susceptibility value (host strain YMC17/03/P971): 16
- susceptibility category (S/I/R) (host strain YMC17/03/P971): R
- susceptibility test value (number given before S/I/R) (host strain YMC17/03/P971): 16
- antibiotic susceptibility S/I/R (host strain YMC17/03/R348): R
- antibiotic susceptibility value (host strain YMC17/03/R348): 16
- susceptibility category (S/I/R) (host strain YMC17/03/R348): R
- susceptibility test value (number given before S/I/R) (host strain YMC17/03/R348): 4
- antibiotic susceptibility S/I/R (host strain YMC17/03/R585): R
- antibiotic susceptibility value (host strain YMC17/03/R585): 16
- susceptibility category (S/I/R) (host strain YMC17/03/R585): R
- susceptibility test value (number given before S/I/R) (host strain YMC17/03/R585): 16
- antibiotic susceptibility S/I/R (host strain YMC17/03/R1888): R
- antibiotic susceptibility value (host strain YMC17/03/R1888): 16
- susceptibility category (S/I/R) (host strain YMC17/03/R1888): R
- susceptibility test value (number given before S/I/R) (host strain YMC17/03/R1888): 16
- antibiotic susceptibility S/I/R (host strain YMC17/03/R3279): R
- antibiotic susceptibility value (host strain YMC17/03/R3279): 16
- susceptibility category (S/I/R) (host strain YMC17/03/R3279): R
- susceptibility test value (number given before S/I/R) (host strain YMC17/03/R3279): 16
- antibiotic susceptibility S/I/R (host strain YMC17/03/R4077): S
- antibiotic susceptibility value (host strain YMC17/03/R4077): 0.5
- susceptibility category (S/I/R) (host strain YMC17/03/R4077): S
- susceptibility test value (number given before S/I/R) (host strain YMC17/03/R4077): 0.5
- antibiotic susceptibility S/I/R (host strain YMC17/03/R4607): S
- antibiotic susceptibility value (host strain YMC17/03/R4607): 0.5
- susceptibility category (S/I/R) (host strain YMC17/03/R4607): S
- susceptibility test value (number given before S/I/R) (host strain YMC17/03/R4607): 0.5
- antibiotic susceptibility S/I/R (host strain YMC17/04/R488): R
- antibiotic susceptibility value (host strain YMC17/04/R488): 8
- susceptibility category (S/I/R) (host strain YMC17/04/R488): R
- susceptibility test value (number given before S/I/R) (host strain YMC17/04/R488): 8
- antibiotic susceptibility S/I/R (host strain YMC17/04/R640): R
- antibiotic susceptibility value (host strain YMC17/04/R640): 8
- susceptibility category (S/I/R) (host strain YMC17/04/R640): R
- susceptibility test value (number given before S/I/R) (host strain YMC17/04/R640): 8
- antibiotic susceptibility S/I/R (host strain YMC/17/05/R1095): R
- antibiotic susceptibility value (host strain YMC/17/05/R1095): 16
- susceptibility category (S/I/R) (host strain YMC/17/05/R1095): R
- susceptibility test value (number given before S/I/R) (host strain YMC/17/05/R1095): 16
